From US9926369B2, “Methods for treating hepatocellular cancer by administering an anti-Ang-2 antibody” (Regeneron Pharmaceuticals, Inc., priority 2009, dated 2018)

Key:
[1] = tested on: COLO 205 (Human Colorectal Adenocarcinoma Cell Line) tumors; assay: COLO 205 mouse tumor model; format: in vivo, mice
Method: Briefly, 2×10^6COLO 205 cells in 100 μl of serum-free medium were injected subcutaneously into the flank of 6-8 week old male NCr nude mice (Taconic, Hudson, N.Y.). After tumor volumes reached an average of about 150 mm^3, mice were randomized into groups for treatment with antibody or Fc protein. Mice in each treatment group were administered an anti-Ang-2 antibody or Fc protein at a concentration of 4 mg/kg via intraperitoneal injection twice per week for approximately two weeks. Tumor volumes were measured twice per week over the course of the experiment and tumor weights were measured upon excision of tumors at the conclusion of the experiment. Averages (mean+/−standard deviation) of tumor weight and growth were calculated for each treatment group. “Avg. Tumor Growth” represents the average growth from the time of treatment initiation (when tumors were approximately 150 mm^3). Percent decrease of tumor weight and growth are calculated from comparison to Fc protein measurements.
A similar experiment was carried out to assess the effect of H1H685P, in particular, on COLO 205 tumor growth. Briefly, 2×10^6 COLO 205 cells in 100 μl of serum-free medium were implanted subcutaneously into the right hind flank of 9-11 week-old male SCID CB17 mice. When the tumors reached ˜125 mm^3, mice were randomized into 5 groups (n=7-8 mice/group) and treated twice per week with Fc protein (15 mg/kg), H1H685P (5 or 25 mg/kg) or Control II (5 or 25 mg/kg) for a period of 19 days. Tumor volumes were measured twice per week over the course of the experiment and tumor weights were measured upon excision of tumors at the end of the experiment. Averages of tumor weight and growth from the beginning of treatment were calculated for each group. Percent decrease of tumor weight and growth are calculated from comparison to the Fc control group.
To determine the effect of combining an anti-Ang-2 antibody with a VEGF inhibitor on the growth of COLO 205 xenografts, 2×10^6 cells were implanted subcutaneously into the right hind flank of 6-8 week-old female SCID mice. When the tumors reached an average volume of ˜350 mm^3, mice were randomized into 4 groups (n=6 mice/group) and treated with: human Fc protein (7.5 mg/kg), H1H685P (5 mg/kg), VEGF Trap (see U.S. Pat. No. 7,087,411) (2.5 mg/kg) or the combination of H1H685P+VEGF Trap. Mice were given a total of 3 doses over 10 days of treatment. Tumor volumes were measured twice per week over the course of the experiment. Averages of tumor growth from the start of treatment (mean+/−standard deviation) were calculated for each treatment group. Percent decrease of tumor growth was calculated from comparison to the Fc control group.
To test the effect of H1H685P in combination with a chemotherapeutic agent on tumor growth, 2.5×10^6 COLO 205 tumor cells were implanted subcutaneously into the right hind flank of 8-9 week-old male SCID mice. When the tumors reached an average volume of ˜150 mm^3 (day 17 after implantation), mice were randomized into 4 groups (n=5 mice/group) and treated as follows: the first group was treated sc with 15 mg/kg hFc and intraperitoneally (ip) with 5-FU vehicle; the second group was treated sc with 15 mg/kg of H1H685P; the third group was treated ip with 75 mg/kg of 5-FU; the fourth group was treated with the combination of 15 mg/kg H1H685P sc plus 75 mg/kg 5-FU ip. Mice received a total of three treatments, administered every 3-4 days. Tumor volumes were measured twice per week over the course of the experiment. Average (mean+/−standard deviation) tumor growth from the beginning of treatment until day 38 was calculated for each group. Percent decrease of tumor growth was calculated from comparison to the control group.

MMT tumors = assay: MMT tumor growth in SCID mice; format: in vivo; conditions: H1H685P 12.5 mg/kg, VEGF Trap 5 mg/kg
Method: To provide additional evidence of combination efficacy, the effect of the H1H685P+VEGF Trap combination on the growth of MMT tumors was assessed. 0.5×10^6 MMT cells were implanted subcutaneously into the right hind flank of 6-8 week-old female SCID mice. […] The Fc and H1H685P groups were given 3 doses over 9 days. The VEGF Trap and combination groups were given 4 doses over 12 days. Tumor volumes were measured twice per week over the course of the experiment and tumor weights were measured upon excision of tumors at the end of the experiment (due to their large size, tumors from the Fc and H1H685P groups were collected 3 days before tumors from the VEGF Trap and combination groups). Averages (mean+/−standard deviation) of tumor growth from the beginning of treatment and of tumor weight were calculated for each group. Percent decrease of tumor weight and growth are calculated from comparison to the Fc control group.

[2] = tested on: COLO 205 tumor vessel perfusion; assay: Tumor perfusion by contrast-enhanced micro-ultrasound, COLO 205 tumors; format: in vivo, mice; conditions: treated for 24 hrs
Method: To determine whether the combination of H1H685P+VEGF Trap has a greater effect on tumor vessel function than the single agents, a micro-ultrasound (VisualSonics' Vevo 770 imaging system) was used to assess changes in tumor perfusion. COLO 205 tumors were grown to ˜125 mm^3 and mice were then treated for 24 hrs with H1H685P, VEGF Trap or the combination of both agents. Following treatment, tumor vessel perfusion was determined based on contrast-enhanced micro-ultrasound 2D image acquisition and analysis of a “wash-in” curve, which represents the amount of contrast agent entering the tumor. Average (mean+/−standard deviation) tumor perfusion was calculated for each group. Percent decrease was calculated from comparison to the Fc control group.

[3] = COLO 205, male SCID mice, H1H685P 15 mg/kg sc, 5-FU 75 mg/kg ip, three treatments, until day 38
[4] = COLO 205, female SCID mice, H1H685P 5 mg/kg, VEGF Trap 2.5 mg/kg, 3 doses over 10 days

Molecule	% Decrease in Tumor Growth [1, 3] [%]	Avg Tumor Growth [1, 3] [mm^3]	% Decrease in Tumor Growth [1, 4] [%]	Avg Tumor Growth [1, 4] [mm^3]	Tumor regression (in words) ([1]; COLO 205, female SCID mice, end vs beginning of treatment)	% Decrease in Tumor Growth (MMT tumors) [%]	% Decrease in Tumor Weight (MMT tumors) [%]	Avg Tumor Growth (MMT tumors) [mm^3]	Avg Tumor Weight (MMT tumors) [g]	Relative Tumor Perfusion ([2]; mean ± SD)	% Decrease in Tumor Perfusion ([2]; vs Fc control) [%]
O=c1[nH]cc(F)c(=O)[nH]1 [Antibody 5-FU, 5-FU, reference compound]	45	313 ± 60									
VEGF Trap: VEGF-inhibiting fusion protein: VEGF receptor extracellular domains fused to the Fc portion of human IgG1 [reference compound]			117	−62 ± 44	tumor regression was observed	60	44	536 ± 179	0.889 ± 0.141	6.99 ± 1.36	14
